Reference: US20250179049A1, “SALTS OF HETEROCYCLIC INHIBITORS OF MONOCARBOXYLATE TRANSPORTER 4 FOR THE TREATMENT OF DISEASE” (Vettore, LLC, priority 2022, published 2025)
Counter-ions that a name gives are not always drawn. Like-named read-outs stand apart in the source and are kept apart here.

What was measured:
[1] = Rat pharmacokinetics, oral gavage; format: in vivo, Sprague-Dawley rats; set-up: AUClast/D: unit not given here; settings: for MRT inf: read-out: MRTInf—obs; for AUC(0-t) / Cmax / Tmax / AUC0-24 salt/ AUC0-24 free/ / AUC0-24: rat
Description: Groups, Dosing, and Collection. […] Three rats per group were perorally administered 20, 60, or 200 mg Compound 1 free acid or 25, 75, or 250 mg in 0.5% methylcellulose in Saline for a final concentration of 2, 6, or 20 mg/mL Compound 1 free acid or 2.5, 7.5, or […]. Plasma was collected at 5 min, 15 min, 30 min, 1 hour, 2 hour, 4 hour, 6 hour, 8 hour, and 24 hour post dose via jugular vein.
Stock and Dose Prep. Stock solutions were prepared by dissolving 2.47 mg of Compound 1 (free acid) in 2.470 mL DMSO with vortexing to obtain 1 mg/mL solution of Compound 1 (free acid), or 2.09 mg of Compound 1 (Tris salt) in […] DMSO with vortexing to obtain 1 mg/mL solution of Compound 1 (Tris salt). Dosing solutions were prepared by vortexing/sonicating the following solids in solvent:
LC MS-MS Analysis. Liquid Chromatography with tandem mass spectrometry was used to determine plasma concentrations of Compound 1 Free Acid and Compound 1 Tris Salt in plasma samples collected at prescribed time points.
Appropriate serial concentrations of working solutions were achieved by diluting stock solution of analyte with 50% acetonitrile in water solution. Five μL of working solutions (10, 20, 50, 100, 500, 1000, 5000, 8000, 10000 ng/mL) were added to 50 μL of the blank male SD Rat plasma to achieve calibration standards of 1˜1000 ng/ml (1, 2, 5, 10, 50, 100, 500, 800, 1000 ng/mL) in a total volume of 55 μL. Five quality control (QC) samples at 2 ng/mL, 5 ng/mL, 10 ng/mL, 50 ng/mL and 800 ng/mL for plasma were prepared independently of those used for the calibration curves. These QC samples were prepared on the day of analysis in the same way as calibration standards. 55 μL standards, 55 μL QC samples and 55 μL unknown samples (50 μL plasma/blood with 5 μL blank solution) were added to 200 μL of methanol containing internal standard (dexamethasone) mixture for precipitating protein respectively, and vortexed for 30 seconds. After centrifugation at 4° C. and 4000 rpm for 15 minutes. The supernatant was diluted with water with a ratio of 1:2. 2 μL of the supernatant was injected into the LC/MS/MS system for quantitative analysis.
Instrumentation included HALO 90A C18 2.7 μm 2.1×50 mm HPLC column, a Prominence degasser DGU-20A5R(C), liquid chromatograph Shimadzu LC-30AD with communications bus module CBM-20A and Auto SIL-20AC HT; and an AB Sciex Triple Quad 5500 LC/MS/MS instrument.

in vivo = test: in vivo; set-up: species or system beagle dogs; settings: both sexes, beagle, dog, 150 mg/kg
Description: Compound 1 was administered to beagle dogs by oral gavage in a range finding study at doses of 30, 79, 240, or 790 mg/kg. […] Compound 1 was administered at doses of 10, 50, and 150 mg/kg/day in the pivotal repeat dose toxicity studies for 28 days.
(§1) Compound 1 tris salt was evaluated for safety in 7- and 28-day studies in rats and dogs. […] The NOAELs for this rat study were 120 mg/kg/day for males and 75 mg/kg/day for females. […] The NOAEL determined in the 28-day dog GLP study was 150 mg/kg/day. These correspond to human equivalent doses (HEDs) of: • Rat: 75 mg/kg×0.16=12 mg/kg • Dog: 150 mg/kg×0.54=81 mg/kg

[2] = 28-day repeat-dose toxicity study in rats; format: in vivo; settings: female, Sprague Dawley, rat, in vivo, 75 mg/kg
Description: Compound 1 was administered to Sprague Dawley rats by oral gavage at doses of 25, 75, and 250 mg/kg/day (females) and 40, 120, and 400 mg/kg/day (males) for 28 days. Compound 1-related mortality occurred in 8 of the 15 toxicity males administered 400 mg/kg/day beginning on Day 8 through 24. […] Target tissues included bone marrow, spleen, thymus, liver, lymph nodes, epididymides, seminal vesicles, prostate, testes, uterus, and ovaries.
as §1

[3] = Sprague-Dawley, plasma, rat PO 25 mg/kg, female, mean
[4] = Sprague-Dawley, plasma, rat PO 25 mg/kg, male, mean
[5] = Sprague-Dawley, plasma, rat PO 75 mg/kg, female, mean
[6] = Sprague-Dawley, plasma, rat PO 75 mg/kg, male, mean
[7] = Sprague-Dawley, plasma, rat PO 250 mg/kg, female, mean
[8] = Sprague-Dawley, plasma, rat PO 250 mg/kg, male, mean
[9] = Female, PO/20 mg/kg, Mean ± SD, 20 mg/kg
[10] = Female, PO/60 mg/kg, Mean ± SD, 60 mg/kg
[11] = Female, PO/200 mg/kg, Mean ± SD, 200 mg/kg

Molecule `CC(C)(OCc1cc(-c2cccc(OC3CCC3)c2)n(-c2ccccc2N2CCC2)n1)C(=O)O` [Compound 1 tris salt, tris salt of 2-((1-(2-(azetidin-1-yl)phenyl)-5-(3-cyclobutoxyphenyl)-1H-pyrazol-3-yl)methoxy)-2-methylpropanoic acid] has an AUC(0-inf) [1, 3] of 1040 µg·h/mL, a half-life [1, 3] of 6.53 h and an MRT inf [1, 3] of 9.9 h. For the same molecule, the AUC(0-inf) [1, 4] was 357 µg·h/mL, the half-life [1, 4] was 3.24 h and the MRT inf [1, 4] was 6.1 h. The AUC(0-inf) [1, 5] was 3270 µg·h/mL, the half-life [1, 5] was 9.6 h and the MRT inf [1, 5] was 14.7 h. The AUC(0-inf) [1, 6] was 910 µg·h/mL, the half-life [1, 6] was 2.91 h and the MRT inf [1, 6] was 6.03 h. It also gave an AUC(0-inf) [1, 7] of 16300 µg·h/mL, a half-life [1, 7] of 40.5 h and an MRT inf [1, 7] of 62 h. For the same molecule, the AUC(0-inf) [1, 8] was 2890 µg·h/mL, the half-life [1, 8] was 12.2 h and the MRT inf [1, 8] was 18.6 h. For the same molecule, the AUC(0-t) ([1]; female, Sprague-Dawley, plasma, po, 25 mg/kg, rat PO 25 mg/kg, female, mean, read-out: AUClast) was 947 µg·h/mL, the Cmax ([1]; female, Sprague-Dawley, plasma, po, 25 mg/kg, rat PO 25 mg/kg, female, mean, read-out: Cmax) was 68.6 µg/mL and the Tmax ([1]; female, Sprague-Dawley, plasma, po, 25 mg/kg, rat PO 25 mg/kg, female, mean, read-out: Tmax) was 6 h. It also gave an AUC(0-t) ([1]; female, Sprague-Dawley, plasma, po, 75 mg/kg, rat PO 75 mg/kg, female, mean, read-out: AUClast) of 2540 µg·h/mL, a Cmax ([1]; female, Sprague-Dawley, plasma, po, 75 mg/kg, rat PO 75 mg/kg, female, mean, read-out: Cmax) of 171 µg/mL and a Tmax ([1]; female, Sprague-Dawley, plasma, po, 75 mg/kg, rat PO 75 mg/kg, female, mean, read-out: Tmax) of 5.33 h. The AUC(0-t) ([1]; female, Sprague-Dawley, plasma, po, 250 mg/kg, rat PO 250 mg/kg, female, mean, read-out: AUClast) was 4470 µg·h/mL, the Cmax ([1]; female, Sprague-Dawley, plasma, po, 250 mg/kg, rat PO 250 mg/kg, female, mean, read-out: Cmax) was 223 µg/mL and the Tmax ([1]; female, Sprague-Dawley, plasma, po, 250 mg/kg, rat PO 250 mg/kg, female, mean, read-out: Tmax) was 6.67 h. For the same molecule, the “Total drug exposure across time (AUClast and AUCInf) compared with free acid” value ([1]; male and female rats) was “higher”, the AUC(0-t) ([1]; male, Sprague-Dawley, plasma, po, 25 mg/kg, rat PO 25 mg/kg, male, mean, read-out: AUClast) was 352 µg·h/mL and the Cmax ([1]; male, Sprague-Dawley, plasma, po, 25 mg/kg, rat PO 25 mg/kg, male, mean, read-out: Cmax) was 44.2 µg/mL. The Tmax ([1]; male, Sprague-Dawley, plasma, po, 25 mg/kg, rat PO 25 mg/kg, male, mean, read-out: Tmax) was 2.86 h, the AUC(0-t) ([1]; male, Sprague-Dawley, plasma, po, 25 mg/kg, Male, PO/25 mg/kg, Mean ± SD, read-out: AUC0-24) was 352 µg·h/mL and the Cmax ([1]; male, Sprague-Dawley, plasma, po, 25 mg/kg, Male, PO/25 mg/kg, Mean ± SD, read-out: Cmax) was 44.2 µg/mL. For the same molecule, the Tmax ([1]; male, Sprague-Dawley, plasma, po, 25 mg/kg, Male, PO/25 mg/kg, Mean ± SD, read-out: Tmax) was 2.9 ± 4.5 h, the AUC(0-t) ([1]; male, Sprague-Dawley, plasma, po, 75 mg/kg, rat PO 75 mg/kg, male, mean, read-out: AUClast) was 906 µg·h/mL and the Cmax ([1]; male, Sprague-Dawley, plasma, po, 75 mg/kg, rat PO 75 mg/kg, male, mean, read-out: Cmax) was 92.3 µg/mL. The Tmax ([1]; male, Sprague-Dawley, plasma, po, 75 mg/kg, rat PO 75 mg/kg, male, mean, read-out: Tmax) was 4 h, the AUC(0-t) ([1]; male, Sprague-Dawley, plasma, po, 75 mg/kg, Male, PO/75 mg/kg, Mean ± SD, read-out: AUC0-24) was 906 µg·h/mL and the Cmax ([1]; male, Sprague-Dawley, plasma, po, 75 mg/kg, Male, PO/75 mg/kg, Mean ± SD, read-out: Cmax) was 92.3 µg/mL. The Tmax ([1]; male, Sprague-Dawley, plasma, po, 75 mg/kg, Male, PO/75 mg/kg, Mean ± SD, read-out: Tmax) was 4 ± 2 h, the AUC(0-t) ([1]; male, Sprague-Dawley, plasma, po, 250 mg/kg, rat PO 250 mg/kg, male, mean, read-out: AUClast) was 2090 µg·h/mL and the Cmax ([1]; male, Sprague-Dawley, plasma, po, 250 mg/kg, rat PO 250 mg/kg, male, mean, read-out: Cmax) was 144 µg/mL. It also gave a Tmax ([1]; male, Sprague-Dawley, plasma, po, 250 mg/kg, rat PO 250 mg/kg, male, mean, read-out: Tmax) of 5.33 h, an AUC(0-t) ([1]; male, Sprague-Dawley, plasma, po, 250 mg/kg, Male, PO/250 mg/kg, Mean ± SD, read-out: AUC0-24) of 2090 µg·h/mL and a Cmax ([1]; male, Sprague-Dawley, plasma, po, 250 mg/kg, Male, PO/250 mg/kg, Mean ± SD, read-out: Cmax) of 144 µg/mL. The Tmax ([1]; male, Sprague-Dawley, plasma, po, 250 mg/kg, Male, PO/250 mg/kg, Mean ± SD, read-out: Tmax) was 5.3 ± 1.1 h, the AUClast/D ([1]; rat PO 25 mg/kg, female, mean) was 37897 and the “AUC—% Extrap—obs” value ([1]; rat PO 25 mg/kg, female, mean) was 9%. The AUClast/D ([1]; rat PO 25 mg/kg, male, mean) was 14077, the “AUC—% Extrap—obs” value ([1]; rat PO 25 mg/kg, male, mean) was 1.28% and the AUClast/D ([1]; rat PO 75 mg/kg, female, mean) was 33882. The “AUC—% Extrap—obs” value ([1]; rat PO 75 mg/kg, female, mean) was 18.5%, the AUClast/D ([1]; rat PO 75 mg/kg, male, mean) was 12078 and the “AUC—% Extrap—obs” value ([1]; rat PO 75 mg/kg, male, mean) was 0.473%. The AUClast/D ([1]; rat PO 250 mg/kg, female, mean) was 17869, the “AUC—% Extrap—obs” value ([1]; rat PO 250 mg/kg, female, mean) was 59.9% and the AUClast/D ([1]; rat PO 250 mg/kg, male, mean) was 8340. For the same molecule, the “AUC—% Extrap—obs” value ([1]; rat PO 250 mg/kg, male, mean) was 26.5%, the “AUC0-24 salt/ AUC0-24 free/” value ([1]; Female, PO/20 mg/kg) was 1.07 and the AUC0-24 [1, 9] was 947,000 ± 135,000 ng h/mL. For the same molecule, the Cmax [1, 9] was 68,600 ± 6400 ng/mL, the “AUC0-24 salt/ AUC0-24 free/” value ([1]; Female, PO/60 mg/kg) was 1.78 and the AUC0-24 [1, 10] was 2,540,000 ± 503,000 ng h/mL. For the same molecule, the Cmax [1, 10] was 171,000 ± 11,600 ng/mL, the “AUC0-24 salt/ AUC0-24 free/” value ([1]; Female, PO/200 mg/kg) was 1.57 and the AUC0-24 [1, 11] was 4,470,000 ± 705,000 ng h/mL. The Cmax [1, 11] was 223,000 ± 29,900 ng/mL, the Tmax [1, 11] was 6.7 ± 1.1 h and the “AUC0-24 salt/ AUC0-24 free/” value ([1]; Male, PO/25 mg/kg) was 2.11. The “AUC0-24 salt/ AUC0-24 free/” value ([1]; Male, PO/75 mg/kg) was 2.03, the “AUC0-24 salt/ AUC0-24 free/” value ([1]; Male, PO/250 mg/kg) was 1.89 and the Human equivalent dose of NOAEL at 28 days (in vivo) was 81 mg/kg. For the same molecule, the Human equivalent dose of NOAEL at 28 days [2] was 12 mg/kg.
